Read-outs that look alike come from different tables or passages of the source.
Tests used:
mouse seizure models [1] = tested on: mouse seizure models; parameters: key: +: Efficacy in mouse seizure models is indicated as plus; −: minus; some (+/−); conditions: literature; cited from earlier work
mouse seizure models [2] = tested on: mouse seizure models; parameters: key: +: Efficacy in mouse seizure models is indicated as plus; −: minus; some (+/−); conditions: literature; cited from earlier work; remark: listed apart in the source
mouse seizure models [3] = tested on: mouse seizure models; parameters: key: +: Efficacy in mouse seizure models is indicated as plus; −: minus; some (+/−); conditions: literature; cited from earlier work; remark: listed apart in the source
mouse seizure models [4] = tested on: mouse seizure models; parameters: key: +: Efficacy in mouse seizure models is indicated as plus; −: minus; some (+/−); conditions: literature; the PTZ model was performed in rats for PHB, PHT and VPA; cited from earlier work
Wistar rats = tested on: Wistar rats; parameters: key to Efficacy in PTZ in PILO-SE rodents (chronic): +: Efficacy in mouse seizure models is indicated as plus; −: minus; some (+/−); conditions: cited from earlier work; for sensitivity of PTZ-induced seizures to drug: one month after pilocarpine, subcutaneous PTZ
acute seizure models = assay: Fluorothyl acute seizure model; format: in vivo; conditions: 30% triheptanoin (Willis and Borges in preparation)
CF1 mice [5] = assay: Corneal kindling; format: in vivo; parameters: key to Delay in corneal kindling (chronic): +: Efficacy in mouse seizure models is indicated as plus; −: minus; some (+/−)
Method: The corneal kindling model was slightly modified from the original protocol ([…] and […], 1998) with kindling twice a day with at least 4 h intervals. A topical anesthetic (0.5% tetracaine hydrochloride ophthalmic solution) was applied to the corneas 10-15 min before stimulation. After wetting the electrodes with 0.9% NaCl immediately before testing, 9 mA 0.4 ms duration pulses at 50 Hz were applied to the corneas for 3 seconds by a constant-current device (ECT Unit 57800, Ugo Basile). Mice were manually held during stimulation and then released for behavioral observation. Seizures were scored according to a modified Racine scale (Racine, 1972) as described by […] and […] (1998) with 0=no reaction or immobility; 1=jaw clonus; 2=myoclonic twitches in the forelimbs, sometimes with head nodding; 3=clonic convulsions in the forelimbs; 4=clonic convulsions in the forelimbs with rearing and falling; 5=loss of balance. […] Both groups had the same average seizure scores for the full kindling period and the last three days of kindling. During the five following weeks, mice were rekindled every week twice a day on two consecutive days and the scores were averaged.

CF1 mice [6] = assay: PTZ (i.v.) seizure threshold, second hit model in chronic stage of pilocarpine SE model; format: in vivo; parameters: key to Efficacy in PTZ in PILO-SE rodents (chronic): +: Efficacy in mouse seizure models is indicated as plus; −: minus; some (+/−)
Method: The pilocarpine CF1 mouse model used in this study was slightly modified from our previous description (Borges et al., 2003, Borges et al., 2004, Borges et al., 2006, Borges et al., 2008). 26-43 g CF1 mice were injected with methylatropine (2 mg/kg i.p. in 0.9% NaCl) to minimize peripheral side effects followed after 15-30 min by different doses of pilocarpine for CF1 mice (270-360 mg/kg, s.c.). About fifty percent of injected mice experienced behavioral status epilepticus (SE) lasting about four hours as defined by continuous seizure activity consisting mainly of whole body continuous clonic seizures. 4.5 h after pilocarpine injection, all mice were injected with pentobarbital (22.5 mg/kg, i.p.) followed by 1 ml 5% dextrose in lactate Ringer's solution (i.p.). After SE, mice were monitored daily, hand-fed moistened cookies and injected with 5% dextrose in lactate Ringer's solution twice a day for about three days and thereafter when needed. Spontaneous and handling-induced seizures, including stage 3-5 seizures, jumping and wild running, were noted. […] “Sham control” mice received methylatropine and pentobarbital, but saline instead of pilocarpine. Out of a total of 205 mice injected with pilocarpine, the inventors obtained 44% SE, 41% no SE mice, while 14% of mice died. In the chronic stage of the pilocarpine model, the seizure thresholds for the first generalized clonic and tonic seizures induced by pentylenetetrazole (PTZ, i.v.) as a measure for seizure susceptibility of SE, no SE and control mice were assessed. As previously described ([…] et al., 2008, Willis et al., 2009), 10 mg/ml PTZ dissolved in saline was infused into the tail vein at 150 μl/min. The latencies to the first generalized myoclonic seizure and tonic extension were determined and converted to seizure thresholds expressed as mg/kg body weight. Mice were euthanized by cervical dislocation immediately after the tonic extension seizure.

[7] = Urine organic acids (GC-MS); format: in vivo, mice; conditions: 24 h urine; levels well below those of propionic acidemia patients
mouse seizure models [8] = assay: 6 Hz (acute) seizure model; format: in vivo; parameters: key to Efficacy in 6 Hz (acute): +: Efficacy in mouse seizure models is indicated as plus; −: minus; some (+/−)
[9] = Method: All mice were housed under a 12 h light dark cycle with free access to food and water. […] Adult male CD1 mice (20-35 g, Australian Institute for Bioengineering and Nanotechnology, Australia) were fed similar diet, prepared by Western Specialty Feed (West Australia). […] Diets were mixed fresh every 3-4 days in the laboratory, dried and then supplied to the mice. Mice were initially weighed daily to ensure adequate nutrition.
After 4 days habituation, food intake and body weight were determined daily and then averaged per day for each mouse. 24 h urine samples were taken and organic acids isolated by liquid partition chromatography and trimethylsilyl derivatives quantified by gas chromatography mass spectrometry (Sweetman, 1991). In a separate study mice were fed respective diets for 3 weeks and were decapitated after isoflurane anaesthesia between 1-4 pm. Trunk blood was collected on absorbent filter paper for measurement of acyl-carnitine levels in dried blood spots using tandem mass spectrometry modified from the method of Rashed et al. (Rashed et al., 1997).

mouse seizure models [10] = assay: PTZ (acute) seizure model; format: in vivo; parameters: key to Efficacy in PTZ (acute): +: Efficacy in mouse seizure models is indicated as plus; −: minus; some (+/−)
[11] = Brain metabolite analysis in chronic stage of pilocarpine model (GC-MS/LC-MS); format: in vivo, CF1 mice; conditions: for brain BHB (β-hydroxybutyrate) / brain Fumarate (%) / brain GABA / brain aspartate (%) / brain citrate / brain glutamate / brain glutamine / brain malate (%) / brain succinate: 35% triheptanoin for three weeks
Description: (§1) Both groups of mice received standard diet during the phase of epileptogenesis, the first two weeks after SE. They were then divided into two groups of equal average weight and received either standard or 35% triheptanoin-containing diet for three weeks. To avoid metabolite changes induced by anesthesia, mice were killed by cervical dislocation and then decapitated. Within 22-32 seconds brains without cerebellum were frozen in liquid nitrogen. Trunk blood was collected in heparinized tubes for analysis of β-hydroxybutyrate and glucose using kits from Pointe Scientific and […], respectively. Brains were stored at -80 C and shipped to the Metabolic Mouse Phenotyping Center at Case Western University for chromatography mass spectrometry (GC-MS/LC-MS) analysis and characterization of intermediates and products of the CAC and acyl-CoA's.

[12] = Plasma β-hydroxybutyrate and glucose in pilocarpine model; format: in vivo, CF1 mice; conditions: no significant changes; range over the SE/no SE and diet groups
Description: as §1

CD1 mice = assay: Maximal electroshock threshold test (MEST); format: in vivo; parameters: key to Efficacy in MEST (acute): +: Efficacy in mouse seizure models is indicated as plus; −: minus; some (+/−)
Method: 0.5% Tetracaine (Sigma Aldrich) in 0.9% NaCl solution was applied to corneas 30 minutes prior to stimulation. Saline solution was also applied to corneas and electrodes immediately prior to stimulation to ensure solid conduction. Mice were administered corneal electroshocks, which were generated using a Hugo Sachs Type 211 rodent shocker (Harvard Apparatus, Germany). Stimulation parameters of 50-60 Hz sine wave frequency, 0.2 second shock duration starting at an 11 mA current were used (Giardina and Gasior, 2009). Immediately following shock administration mouse seizure behaviour was observed. Severe clonic convulsions followed by tonic extension of both forelimbs were classified as seizures. 1 mA increments were used to determine the seizure threshold CC50 value using the up down method (Kimball et al., 1957). All mice were terminated via cervical dislocation immediately following seizure observational time.

[13] = 30% triheptanoin (Willis and Borges in preparation)
[14] = chronically epileptic SE mice, not in no SE mice

SMILES: CC[C@@H](C(N)=O)N1CCCC1=O [LEV, levetiracetam]
- Efficacy in 6 Hz (acute) (mouse seizure models [1]): +
- Efficacy in MEST (acute) (mouse seizure models [2]): −
- Delay in corneal kindling (chronic) (mouse seizure models [3]): +
- Efficacy in PTZ (acute) (mouse seizure models [4]): −

SMILES: O=C1NC(=O)C(c2ccccc2)(c2ccccc2)N1 [PHT, phenyloin]
- Efficacy in 6 Hz (acute) (mouse seizure models [1]): +
- Efficacy in MEST (acute) (mouse seizure models [2]): +
- sensitivity of PTZ-induced seizures to drug (Wistar rats; SE Wistar rats): not in SE rats
- Efficacy in PTZ in PILO-SE rodents (chronic) (Wistar rats; literature, PTZ model performed in rats for PHB, PHT and VPA): −
- sensitivity of PTZ-induced seizures to drug (Wistar rats; no SE Wistar rats): sensitive
- Efficacy in PTZ (acute) (mouse seizure models [4]): −

SMILES: CCCCCCC(=O)OCC(COC(=O)CCCCCC)OC(=O)CCCCCC [Triheptanoin, 1,3-di(heptanoyloxy)propan-2-yl heptanoate]
- anticonvulsant effect in acute fluorothyl model (acute seizure models): No consistent anticovulsant effect
- development of corneally kindled seizures (CF1 mice [5]; 35% triheptanoin feeding from three weeks prior to and throughout kindling, CF1 mice): delayed the development of kindled seizures
- Delay in corneal kindling (chronic) (CF1 mice [5]; mouse): +
- PTZ clonic seizure thresholds (CF1 mice [6]; SE or no SE mice, diet for three weeks after pilocarpine): no effect
- reversal of increased susceptibility to PTZ tonic extension in SE mice (CF1 mice [6]; diet initiated immediately after pilocarpine injection, three weeks, p<0.05): about 40%
- Efficacy in PTZ in PILO-SE rodents (chronic) (CF1 mice [6]; mice): +
- reversal of susceptibility to PTZ tonic extension in no SE mice (CF1 mice [6]; no SE mice, three weeks after pilocarpine injection): but not in no SE mice
- counteraction of 30% increased susceptibility to tonic extension seizure in SE mice (CF1 mice [6]; three week feeding initiated two weeks after pilocarpine injection, p<0.05): about 50%
- urine markers for propionic acidemia (methylmalonate, methylcitrate) [7]: some increases
- anticonvulsant effect in acute 6 Hz model (mouse seizure models [8]; [13]): No consistent anticovulsant effect
- Efficacy in 6 Hz (acute) (mouse seizure models [8]; mouse): −
- body weights ([9]; 35% triheptanoin diet vs standard chow, up to 52 days, CF1 mice): statistically indistinguishable
- tolerability ([9]; mouse, in vivo): well tolerated
- anticonvulsant effect in acute PTZ (i.v.) model (mouse seizure models [10]; [13]): No consistent anticovulsant effect
- Efficacy in PTZ (acute) (mouse seizure models [10]; mouse): −
- brain β-hydroxybutyrate levels ([11]; 35% triheptanoin diet, both SE and no SE brains): doubled
- brain BHB (β-hydroxybutyrate) ([11]; No SE mice): 108.9 ± 9.6 μmol/g wet weight
- brain Fumarate (%) ([11]; No SE mice): 82.8 ± 3.8 % of control
- brain GABA ([11]; No SE mice): 2.36 ± 0.13 μmol/g wet weight
- brain aspartate (%) ([11]; No SE mice): 104.0 ± 7.0 % of control
- brain citrate ([11]; No SE mice): 0.21 ± 0.01 μmol/g wet weight
- brain glutamate ([11]; No SE mice): 21.59 ± 0.92 μmol/g wet weight
- brain glutamine ([11]; No SE mice): 12.91 ± 0.49 μmol/g wet weight
- brain malate (%) ([11]; No SE mice): 125.5 ± 7.7 % of control
- brain succinate ([11]; No SE mice): 0.11 ± 0.01 μmol/g wet weight
- brain BHB (β-hydroxybutyrate) ([11]; SE mice): 127.4 ± 15.7 μmol/g wet weight
- brain Fumarate (%) ([11]; SE mice): 81.4 ± 2.9 % of control
- brain GABA ([11]; SE mice): 2.16 ± 0.05 μmol/g wet weight
- brain aspartate (%) ([11]; SE mice): 76.6 ± 4.1 % of control
- brain citrate ([11]; SE mice): 0.2 ± 0.01 μmol/g wet weight
- brain glutamate ([11]; SE mice): 22.01 ± 1.65 μmol/g wet weight
- brain glutamine ([11]; SE mice): 13.15 ± 0.48 μmol/g wet weight
- brain malate (%) ([11]; SE mice): 80.1 ± 3.9 % of control
- brain succinate ([11]; SE mice): 0.10 ± 0.01 μmol/g wet weight
- brain propionyl-CoA levels ([11]; SE mice, triheptanoin feeding, p<0.001): restored
- steady state brain level of succinyl-CoA ([11]; by SE or diet): No significant changes
- increase of brain HMG-CoA levels [11, 14]: 1.8 fold
- increase of brain methylmalonyl-CoA levels [11, 14]: 1.4 fold
- decrease of brain fumarate levels ([11]; no SE mice, p<0.05): 17%
- increase of brain malate levels ([11]; no SE mice, p<0.05): 26%
- plasma levels of glucose [12]: 174 to 228 mg/dL
- plasma levels of β-hydroxybutyrate [12]: 0.17 to 0.28 mM
- MEST (critical current at which 50% of mice seize, CC50) (CD1 mice; 35% of daily caloric intake as triheptanoin oil, after 3.5 and six weeks, CD1 mice, p=0.018 and p<0.0011): reproducible increase
- Efficacy in MEST (acute) (CD1 mice; mouse): +

SMILES: NC(=O)N1c2ccccc2C=Cc2ccccc21 [CBZ, carbamazepine]
- Efficacy in 6 Hz (acute) (mouse seizure models [1]): +/−
- Efficacy in MEST (acute) (mouse seizure models [2]): +
- Efficacy in PTZ (acute) (mouse seizure models [4]): −

Reference: US20110301238A1, “SEIZURE RELATED DISORDERS AND THERAPEUTIC METHODS THEREOF” (priority 2010, published 2011)
